Test system: MRSA NCTC 11939
Assay: Synergy testing: disc susceptibility, zone of inhibition on agar containing Laureth derivative
Type: cell-based, Staphylococcus aureus
Description: There now follows data relating to a screen for synergistic interaction between Laureth derivatives [C12E1 to C12E8] and 12 conventional anti-staphylococcal agents.
Ethoxylated Lauryl Alcohol Derivative Preparation As plates containing quarter strength of the MIC of NCTC 11939 are needed, and therefore very small weights of each compound, they were prepared at twenty time strength in 20 mL volumes in plastic universals. Once prepared these solutions were diluted […] by adding 1 mL to 1 mL SDW, resulting a 2 mL volume at ten times strength. This was undertaken in duplicate to create two identical plates.
IST was prepared as previously stated in above. 18 mL agar was added to each universal and then poured into sterile Petri dishes. Control plates were prepared as stated above
A 0.5 McFarland suspension of MRSA NCTC 11939 was prepared using SDW. This was then adjusted to a concentration of 1.5×107 by adding 200 μL to 1.8 mL of SDW. Once diluted, a sterile cotton swab was used to spread the suspension evenly across the entire surface of each agar plate.
Twelve antibiotics discs were added to the plates, 6 per plate in a circle. The plates were then incubated aerobically at 37° C.
The diameter of the zones of clearance were measured and recorded in millimetres. The zones for each compound were compared to the control and to BSAC breakpoints.
A variation of zone size within 2 mm is within acceptable limits of assay reproducibility.

[1] = antibiotic disc in the presence of L1 [C12E1] 0.005 mmol/L
[2] = antibiotic disc in the presence of L2 [C12E2] 0.0275 mmol/L
[3] = antibiotic disc in the presence of L3 [C12E3] 0.01375 mmol/L
[4] = antibiotic disc in the presence of L4 [C12E4] 0.0275 mmol/L
[5] = antibiotic disc in the presence of L5 [C12E5] 0.0275 mmol/L
[6] = antibiotic disc in the presence of L6 [C12E6] 0.0275 mmol/L
[7] = antibiotic disc in the presence of L7 [C12E7] 0.0275 mmol/L
[8] = antibiotic disc in the presence of L8 [C12E8] 0.055 mmol/L
[9] = antibiotic disc, Control, 0 mmol/L Laureth derivative

| Molecule | Zone of Inhibition [1] [mm] | Zone of Inhibition [2] [mm] | Zone of Inhibition [3] [mm] | Zone of Inhibition [4] [mm] | Zone of Inhibition [5] [mm] | Zone of Inhibition [6] [mm] | Zone of Inhibition [7] [mm] | Zone of Inhibition [8] [mm] | Zone of Inhibition [9] [mm] |
| --- | --- | --- | --- | --- | --- | --- | --- | --- | --- |
| O=C(N[C@H](CO)[C@H](O)c1ccc([N+](=O)[O-])cc1)C(Cl)Cl [Chloramphenicol] | 22 | 22 | 24 | 23 | 25 | 23 | 22 | 23 | – |
| CCC[C@@H]1C[C@@H](C(=O)N[C@@H]([C@H]2O[C@H](SC)[C@H](O)[C@@H](O)[C@H]2O)[C@H](C)Cl)N(C)C1 [Clindamycin] | 33 | 32 | 32 | 34 | 33 | 33 | 34 | 35 | – |
| CC[C@H]1OC(=O)[C@H](C)[C@@H](O[C@H]2C[C@@](C)(OC)[C@@H](O)[C@H](C)O2)[C@H](C)[C@@H](O[C@@H]2O[C@H](C)C[C@H](N(C)C)[C@H]2O)[C@](C)(O)C[C@@H](C)C(=O)[C@H](C)[C@@H](O)[C@]1(C)O [Erythromycin] | 7 | 7 | 7 | 8 | 7 | 7 | 7 | 8 | – |
| CC(=O)O[C@H]1C[C@@]2(C)[C@@H](C[C@@H](O)[C@H]3[C@@]4(C)CC[C@@H](O)[C@@H](C)[C@@H]4CC[C@@]32C)/C1=C(\CCC=C(C)C)C(=O)O [Fusidic Acid] | 36 | 37 | 35 | 38 | 37 | 39 | 37 | – | – |
| COc1c(N2C[C@@H]3CCCN[C@@H]3C2)c(F)cc2c(=O)c(C(=O)O)cn(C3CC3)c12 [Moxyfloxacin] | 14 | 14 | 16 | 14 | 13 | 14 | 18 | – | 15 |
| C/C(=C\C(=O)OCCCCCCCCC(=O)O)C[C@@H]1OC[C@H](C[C@@H]2O[C@H]2[C@@H](C)[C@H](C)O)[C@@H](O)[C@H]1O [Muprocin] | 32 | 33 | 32 | 34 | 32 | 33 | 34 | 35 | 33 |
| CO[C@H]1/C=C/O[C@@]2(C)Oc3c(C)c(O)c4c(O)c(c(/C=N/N5CCN(C)CC5)c(O)c4c3C2=O)NC(=O)/C(C)=C\C=C\[C@H](C)[C@H](O)[C@@H](C)[C@@H](O)[C@@H](C)[C@H](OC(C)=O)[C@@H]1C [Rifampicin] | 37 | 37 | 37 | 40 | 39 | 40 | 39 | – | – |
| CN(C)[C@@H]1C(O)=C(C(N)=O)C(=O)[C@@]2(O)C(O)=C3C(=O)c4c(O)cccc4[C@@](C)(O)[C@H]3C[C@@H]12 [Tetracycline] | 34 | 35 | 35 | 36 | 32 | 35 | 36 | – | – |
| COc1cc(Cc2cnc(N)nc2N)cc(OC)c1OC [Trimethoprim] | 29 | 30 | 28 | 31 | 30 | 31 | 30 | – | – |
| CN[C@H](CC(C)C)C(=O)N[C@H]1C(=O)N[C@@H](CC(N)=O)C(=O)N[C@H]2C(=O)N[C@H]3C(=O)N[C@H](C(=O)N[C@H](C(=O)O)c4cc(O)cc(O)c4-c4cc3ccc4O)[C@H](O)c3ccc(c(Cl)c3)Oc3cc2cc(c3O[C@@H]2O[C@H](CO)[C@@H](O)[C@H](O)[C@H]2O[C@H]2C[C@](C)(N)[C@H](O)[C@H](C)O2)Oc2ccc(cc2Cl)[C@H]1O [Vancomycin] | 21 | 21 | 19 | 21 | 20 | 20 | 20 | 23 | – |
| Gentamicin | 27 | 27 | 27 | 29 | 28 | 30 | 30 | 33 | 28 |
